Test results from patent EP4745134A1 (Jiangsu Yahong Meditech Co., Ltd., priority 2023, dated 2025).

Key:
MTAP-deficient HCT116 = experiment: Pharmacodynamic test in human colon cancer xenograft model (MTAP-deficient HCT116); assay type: in vivo; settings: 100 mpk, orally by gavage once a day, HCT116 MTAP deficient mice xenograft
Experimental: The compounds (100 mpk, blank vehicle as a control) were orally administered to the HCT116 MTAP deficient mice (cell source: creative biogene-CSC-RT2701) of human colon cancer xenograft model by gavage daily during the experimental planning period. The positive compound AMG9747 was synthesized according to the method reported in the patent WO2021163344A1. The compounds were formulated as follows: weighing 100.00 mg of a test compound, adding it to 10 mL of 0.5% MC4000+0.2% Tween 80, vortexing and shaking to prepare a suspension, i.e., a dose of 100 mpk. Each group had 8 mice and was subjected to administration by gavage once a day. The tumor volume was measured once in groups before administration, and measured on days 3, 6, 10, 13, 16 and 19 respectively after administration. The positive drug (synthesized according to the patent WO2021163344A1) AMG-9747 was used as a control, and compound AMG-9747 has a structure of: [drawing 1174] Table 3. Percentage of inhibition of the compounds of the present invention on tumor growth in the human colon cancer xenograft (MTAP-deficient HCT116) model

HCT116 MTAP KO cells = experiment: Inhibitory activity against cell proliferation (CellTiter Glo, 6 days), HCT116 MTAP KO; assay type: cell-based; settings: for IC50: Homo sapiens, HCT-116, 144 h, HCT116 MTAP KO cells, 6 days, CellTiter Glo, read-out: HCT116 MTAP KO IC50; for Selectivity HCT 116-WT/ HCT116 MTAP KO: ratio of IC50 HCT116-WT / HCT116 MTAP KO
How it was run: (§1)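 Luminescence read-out (CellTiter Glo, 10 min shaking at room temperature) after 6 days of compound exposure; IC50 fitted against DMSO controls. Top dose 10000 nM, 4-fold steps, 8 points; 250 cells/well in McCoy's 5A + 10% FBS.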

HCT116-WT cells = experiment: Inhibitory activity against cell proliferation (CellTiter Glo, 6 days), HCT116-WT; assay type: cell-based; settings: 144 h, HCT116-WT cells, 6 days, CellTiter Glo; read-out: HCT116-WT IC50
How it was run: as §1

PRMT5-MTA = PRMT5-MTA (Homo sapiens, UniProt O14744); experiment: Enzymatic inhibitory activity against PRMT5-MTA (AlphaScreen); assay type: biochemical; settings: read-out: IC50
Sequence of PRMT5-MTA (O14744 whole entry): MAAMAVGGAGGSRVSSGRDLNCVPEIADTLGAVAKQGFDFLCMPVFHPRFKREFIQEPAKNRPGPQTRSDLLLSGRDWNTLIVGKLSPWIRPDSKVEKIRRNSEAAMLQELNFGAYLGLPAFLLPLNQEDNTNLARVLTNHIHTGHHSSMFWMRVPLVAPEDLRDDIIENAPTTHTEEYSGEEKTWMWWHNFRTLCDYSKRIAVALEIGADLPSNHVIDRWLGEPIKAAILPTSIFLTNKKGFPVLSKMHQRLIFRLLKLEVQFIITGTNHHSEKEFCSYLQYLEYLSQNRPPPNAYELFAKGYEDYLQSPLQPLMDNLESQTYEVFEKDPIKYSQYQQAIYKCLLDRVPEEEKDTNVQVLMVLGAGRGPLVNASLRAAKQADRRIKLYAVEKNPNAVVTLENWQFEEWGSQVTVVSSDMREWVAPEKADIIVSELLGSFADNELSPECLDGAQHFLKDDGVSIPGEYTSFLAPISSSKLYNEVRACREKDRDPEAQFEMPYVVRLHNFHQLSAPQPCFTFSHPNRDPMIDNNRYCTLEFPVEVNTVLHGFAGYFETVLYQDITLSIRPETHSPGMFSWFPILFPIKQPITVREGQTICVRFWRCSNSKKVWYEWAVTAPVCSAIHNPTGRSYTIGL
Sequence of PRMT5-MTA (Q9BQA1 whole entry partner): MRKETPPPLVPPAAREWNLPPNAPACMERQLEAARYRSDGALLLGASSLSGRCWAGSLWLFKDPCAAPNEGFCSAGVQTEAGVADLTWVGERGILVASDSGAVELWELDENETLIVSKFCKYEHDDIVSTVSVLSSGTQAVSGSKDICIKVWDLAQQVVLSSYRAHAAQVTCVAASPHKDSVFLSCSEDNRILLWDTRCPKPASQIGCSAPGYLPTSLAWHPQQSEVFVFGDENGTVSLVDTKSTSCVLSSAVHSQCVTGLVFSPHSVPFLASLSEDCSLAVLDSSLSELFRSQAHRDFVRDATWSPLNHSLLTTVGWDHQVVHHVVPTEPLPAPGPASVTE
How it was run: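 PRMT5/[…] (1 nM) was preincubated for 30 min at room temperature with 1 µM […] and 2.5 µM SAM, then exposed to compound (10-point, 3-fold from 1000 nM) for 15 min at 23 °C. Histone H4 substrate (5 nM) was added and reacted for 45 min at 23 °C. Symmetric dimethyl-R3 H4 was detected by AlphaScreen and IC50 calculated.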

## Cc1cc2cc(C(=O)N(Cc3ccc(C(F)(F)F)cn3)[C@H](C)c3ncccn3)ccc2nc1N [AMG-9747, reference compound]
MTAP-deficient HCT116
  Percentage of tumor growth inhibition: 68%

## Cc1cc2cc(C(=O)N(Cc3ccc(C(F)(F)F)cn3)N(C)c3ncccn3)ccc2nc1N [Example 1, 2-amino-N',3-dimethyl-N'-(pyrimidin-2-yl)-N-((5-(trifluoromethyl)pyridin-2-yl)methyl) quinoline-6-carbohydrazide]
HCT116 MTAP KO cells
  IC50: 32 nM
  Selectivity HCT 116-WT/ HCT116 MTAP KO: 19.47
HCT116-WT cells
  IC50: 623 nM
PRMT5-MTA
  IC50: 1 nM
MTAP-deficient HCT116
  Percentage of tumor growth inhibition: 80%

## Cc1cc2cc(C(=O)N(Cc3ccc(C(F)(F)F)cn3)N(c3ncccn3)C3CC3)ccc2nc1N [Example 3, 2-amino-N'-cyclopropyl-3-methyl-N'-(pyrimidin-2-yl)-N-((5-(trifluoromethyl)pyridin-2-yl)methyl)quinoline-6-carbohydrazide]
HCT116 MTAP KO cells
  IC50: 27 nM
  Selectivity HCT 116-WT/ HCT116 MTAP KO: 21.04
HCT116-WT cells
  IC50: 568 nM
PRMT5-MTA
  IC50: 2.6 nM
MTAP-deficient HCT116
  Percentage of tumor growth inhibition: 86%

## Cc1cc2cc(C(=O)N(Cc3ccc(-c4scnc4C)cn3)N(c3ncccn3)C3CC3)ccc2nc1N [Example 184, 2-amino-N'-cyclopropyl-3-methyl-N-((5-(4-methylthiazol-5-yl)pyridin-2-yl)methyl)-N'-(pyrimidin-2-yl)quinoline-6-carbohydrazide]
HCT116 MTAP KO cells
  IC50: 13 nM
  Selectivity HCT 116-WT/ HCT116 MTAP KO: 18.46
HCT116-WT cells
  IC50: 240 nM
PRMT5-MTA
  IC50: 7.4 nM
MTAP-deficient HCT116
  Percentage of tumor growth inhibition: 81%

## Cc1cc2cc(C(=O)N(Cc3ccc(-c4cnn(C(F)(F)F)c4)cn3)N(C)c3ncccn3)ccc2nc1N [Example 189, 2-amino-N',3-dimethyl-N'-(pyrimidin-2-yl)-N-((5-(1-(trifluoromethyl)-1H-pyrazol-4-yl)pyridin-2-yl)methyl)quinoline-6-carbohydrazide]
HCT116 MTAP KO cells
  IC50: 55 nM
  Selectivity HCT 116-WT/ HCT116 MTAP KO: 42.00
HCT116-WT cells
  IC50: 2310 nM
PRMT5-MTA
  IC50: 1.7 nM
MTAP-deficient HCT116
  Percentage of tumor growth inhibition: 93%

## Cc1cc2nc(N)c3cnn(C)c3c2cc1C(=O)N1CC(C)CN1c1ncc(Br)cc1F (centres unmarked) [Example 392, (4-amino-1,7-dimethyl-1H-pyrazolo[4,3-c]quinolin-8-yl)(2-(5-bromo-3-fluoropyridin-2-yl)-4-methylpyrazolidin-1-yl)metha none]
HCT116 MTAP KO cells
  IC50: 28 nM
  Selectivity HCT 116-WT/ HCT116 MTAP KO: 40.21
HCT116-WT cells
  IC50: 1130 nM
PRMT5-MTA
  IC50: 4 nM
MTAP-deficient HCT116
  Percentage of tumor growth inhibition: 69%
